Measured values: ChEMBL document CHEMBL4411306, “High-throughput screening of novel pyruvate dehydrogenase kinases inhibitors and biological evaluation of their in vitro and in vivo antiproliferative activity” (Eur J Med Chem, 2019)
One block for each compound: values may come before it. Active and inactive are the calls of the source. The calls are words filed in the database; no cut-off is given here.

Assays:
[1] = target: T1, [Pyruvate dehydrogenase (acetyl-transferring)] kinase isozyme 2, mitochondrial (Homo sapiens, UniProt Q15119); assay: Inhibition of recombinant human His6-tagged N-terminal PDHK2 (A8 to T399 residues) expressed in baculovirus expression system using PDC as substrate incubated for 10 mins followed by ATP addition measured at 12 secs interval for 20 mins
[2] = Inhibition of porcine PDK assessed as activation of pyruvate dehydrogenase complex measured after 3 mins; parameters: species or system Sus scrofa
[3] = test system: NCI-H1975; assay: Induction of apoptosis in human NCI-H1975 cells assessed as early apoptotic cells at 10 uM after 12 hrs by Annexin V-FITC/propidium iodide staining based flow cytometry (reference value: 1.8%); assay type: functional
[4] = test system: NCI-H1975; assay: Inhibition of PDK in human NCI-H1975 cells assessed as reduction in PDH phosphorylation at 10 uM after 12 hrs by Western blot analysis; assay type: cell-based
[5] = Antiproliferative activity against human BEAS2B cells assessed as reduction in cell viability after 72 hrs by MTT assay; assay type: cell-based; conditions: BEAS-2B cells, read-out: GC50
[6] = test system: NCI-H1975; assay: Induction of apoptosis in human NCI-H1975 cells assessed as late apoptotic cells at 2 uM after 12 hrs by Annexin V-FITC/propidium iodide staining based flow cytometry (reference value: 3.7%); assay type: functional
[7] = test system: NCI-H1975; assay: Induction of apoptosis in human NCI-H1975 cells assessed as live cells at 0.5 uM after 12 hrs by Annexin V-FITC/propidium iodide staining based flow cytometry (reference value: 92.7%); assay type: functional
[8] = test system: NCI-H1975; assay: Induction of apoptosis in human NCI-H1975 cells assessed as early apoptotic cells at 2 uM after 12 hrs by Annexin V-FITC/propidium iodide staining based flow cytometry (reference value: 1.8%); assay type: functional
[9] = test system: NCI-H1975; assay: Induction of apoptosis in human NCI-H1975 cells assessed as late apoptotic cells at 4 uM after 12 hrs by Annexin V-FITC/propidium iodide staining based flow cytometry (reference value: 3.7%); assay type: functional
[10] = test system: NCI-H1975; assay: Antitumor activity against human NCI-H1975 cells xenografted in nude mouse assessed as tumor growth inhibition administered orally once daily for 21 days; assay type: functional, cell-based
[11] = target: Heat shock protein HSP90 (Homo sapiens, UniProt P07900+P08238); assay: Inhibition of human HSP90 measured after 30 mins by fluorescence polarization assay; assay type: protein assay
[12] = target: T2, [Pyruvate dehydrogenase (acetyl-transferring)] kinase isozyme 1, mitochondrial (Homo sapiens, UniProt Q15118); assay: Binding affinity to recombinant human His-tagged PDK1 expressed in Escherichia coli by isothermal calorimetry
T2 sequence (Q15118 whole entry): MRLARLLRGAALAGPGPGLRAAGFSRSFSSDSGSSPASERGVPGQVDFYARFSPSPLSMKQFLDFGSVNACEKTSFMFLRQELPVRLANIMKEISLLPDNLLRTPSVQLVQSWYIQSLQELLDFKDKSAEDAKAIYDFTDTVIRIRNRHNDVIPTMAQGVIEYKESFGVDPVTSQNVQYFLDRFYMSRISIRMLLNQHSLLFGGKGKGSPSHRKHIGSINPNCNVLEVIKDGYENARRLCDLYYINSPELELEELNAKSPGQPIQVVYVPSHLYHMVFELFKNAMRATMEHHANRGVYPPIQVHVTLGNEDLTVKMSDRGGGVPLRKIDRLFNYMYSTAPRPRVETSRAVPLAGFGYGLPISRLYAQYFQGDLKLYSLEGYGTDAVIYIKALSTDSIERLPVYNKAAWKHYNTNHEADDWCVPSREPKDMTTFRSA

[13] = test system: A549; assay: Antiproliferative activity against human A549 cells assessed as reduction in cell viability after 72 hrs by MTT assay; assay type: functional
[14] = test system: NCI-H1975; assay: Induction of apoptosis in human NCI-H1975 cells assessed as necrotic cells at 4 uM after 12 hrs by Annexin V-FITC/propidium iodide staining based flow cytometry (reference value: 1.8%); assay type: functional
[15] = test system: NCI-H1975; assay: Induction of apoptosis in human NCI-H1975 cells after 12 hrs by Annexin V-FITC/propidium iodide staining based flow cytometry; assay type: functional, cell-based
[16] = test system: HCT-116; assay: Antiproliferative activity against human HCT116 cells assessed as reduction in cell viability after 72 hrs by MTT assay; assay type: functional
[17] = test system: NCI-H1975; assay: Induction of apoptosis in human NCI-H1975 cells assessed as live cells at 10 uM after 12 hrs by Annexin V-FITC/propidium iodide staining based flow cytometry (reference value: 92.7%); assay type: functional
[18] = test system: NCI-H1975; assay: Induction of apoptosis in human NCI-H1975 cells assessed as necrotic cells at 0.5 uM after 12 hrs by Annexin V-FITC/propidium iodide staining based flow cytometry (reference value: 1.8%); assay type: functional
[19] = target: [Pyruvate dehydrogenase (acetyl-transferring)] kinase isozyme 4, mitochondrial (Homo sapiens, UniProt Q16654); assay: Inhibition of recombinant human His-tagged PDK4 expressed in Escherichia coli using PDH E1 as substrate measured after 30 mins by Kinase-Glo luminescence assay
Sequence of [Pyruvate dehydrogenase (acetyl-transferring)] kinase isozyme 4, mitochondrial (Q16654 whole entry): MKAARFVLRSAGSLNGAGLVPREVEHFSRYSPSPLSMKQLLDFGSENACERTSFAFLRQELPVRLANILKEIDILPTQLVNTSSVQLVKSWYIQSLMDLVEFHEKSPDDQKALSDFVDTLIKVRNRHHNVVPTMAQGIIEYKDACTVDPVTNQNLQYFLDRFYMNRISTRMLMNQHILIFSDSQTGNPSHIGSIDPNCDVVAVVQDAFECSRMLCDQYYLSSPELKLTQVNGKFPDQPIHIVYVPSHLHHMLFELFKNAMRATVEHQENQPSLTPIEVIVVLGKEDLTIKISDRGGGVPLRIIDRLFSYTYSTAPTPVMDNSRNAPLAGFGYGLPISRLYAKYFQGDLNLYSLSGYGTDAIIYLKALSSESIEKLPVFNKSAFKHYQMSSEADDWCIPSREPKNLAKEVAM

[20] = test system: Mus musculus; assay: In-vivo of inhibition of PDH phosphorylation in tumor of nude mouse xenografted with human NCI-H1975 cells at 10 to 20 mg/kg, po administered once daily for 21 days measured post last dose by Western blot analysis; assay type: functional, organism-based
[21] = target: T1, [Pyruvate dehydrogenase (acetyl-transferring)] kinase isozyme 2, mitochondrial; assay: Inhibition of recombinant human His-tagged PDK2 expressed in Escherichia coli using PDH E1 as substrate measured after 30 mins by Kinase-Glo luminescence assay
[22] = test system: MCF7; assay: Antiproliferative activity against human MCF7 cells assessed as reduction in cell viability after 72 hrs by MTT assay; assay type: functional
[23] = test system: NCI-H1975; assay: Antitumor activity against human NCI-H1975 cells xenografted in nude mouse assessed as reduction in tumor weight administered orally once daily for 21 days; assay type: functional, cell-based
[24] = Toxicity in nude mouse xenografted with human NCI-H1975 cells assessed as effect on body weight at 10 to 20 mg/kg, po administered once daily for 21 days measured twice weekly during compound dosing; assay type: organism-based; conditions: in vivo, 504 h
[25] = test system: NCI-H1975; assay: Induction of apoptosis in human NCI-H1975 cells assessed as late apoptotic cells at 0.5 uM after 12 hrs by Annexin V-FITC/propidium iodide staining based flow cytometry (reference value: 3.7%); assay type: functional
[26] = target: T2, [Pyruvate dehydrogenase (acetyl-transferring)] kinase isozyme 1, mitochondrial; assay: Inhibition of PDK1 in human NCI-H1975 cells assessed as switch of pyruvate metabolism from lactate production to oxidative phosphorylation by measuring increase in oxygen consumption rates at 1 to 10 uM measured after 4 hrs by XFe24 extracellular flux analyzer based assay; assay type: cell-based
[27] = test system: NCI-H1975; assay: Induction of apoptosis in human NCI-H1975 cells assessed as early apoptotic cells at 0.5 uM after 12 hrs by Annexin V-FITC/propidium iodide staining based flow cytometry (reference value: 1.8%); assay type: functional
[28] = test system: NCI-H1975; assay: Induction of apoptosis in human NCI-H1975 cells assessed as necrotic cells at 10 uM after 12 hrs by Annexin V-FITC/propidium iodide staining based flow cytometry (reference value: 1.8%); assay type: functional
[29] = Permeability across human Caco2 cells by liquid scintillation counting method; assay type: ADME, cell-based; conditions: caco-2
[30] = target: T2, [Pyruvate dehydrogenase (acetyl-transferring)] kinase isozyme 1, mitochondrial; assay: Inhibition of PDK1 in human NCI-H1975 cells assessed as switch of pyruvate metabolism from lactate production to oxidative phosphorylation by measuring by measuring reduction in lactate formation at 10 uM measured after 4 hrs; assay type: cell-based
[31] = test system: HepG2; assay: Antiproliferative activity against human HepG2 cells assessed as reduction in cell viability after 72 hrs by MTT assay; assay type: functional
[32] = test system: NCI-H1975; assay: Induction of apoptosis in human NCI-H1975 cells assessed as necrotic cells at 2 uM after 12 hrs by Annexin V-FITC/propidium iodide staining based flow cytometry (reference value: 1.8%); assay type: functional
[33] = test system: NCI-H1975; assay: Antiproliferative activity against human NCI-H1975 cells assessed as reduction in cell viability after 72 hrs by MTT assay; assay type: functional
[34] = target: T2, [Pyruvate dehydrogenase (acetyl-transferring)] kinase isozyme 1, mitochondrial; assay: Inhibition of PDK1 in human NCI-H1975 cells assessed as switch of pyruvate metabolism from lactate production to oxidative phosphorylation by measuring increase in ROS production at high concentration after 4 hrs by DCFH-DA dye based assay; assay type: cell-based
[35] = test system: NCI-H1975; assay: Induction of apoptosis in human NCI-H1975 cells assessed as live cells at 4 uM after 12 hrs by Annexin V-FITC/propidium iodide staining based flow cytometry (reference value: 92.7%); assay type: functional
[36] = target: [Pyruvate dehydrogenase (acetyl-transferring)] kinase isozyme 3, mitochondrial (Homo sapiens, UniProt Q15120); assay: Inhibition of recombinant human His-tagged PDK3 expressed in Escherichia coli using PDH E1 as substrate measured after 30 mins by Kinase-Glo luminescence assay
Sequence of [Pyruvate dehydrogenase (acetyl-transferring)] kinase isozyme 3, mitochondrial (Q15120 whole entry): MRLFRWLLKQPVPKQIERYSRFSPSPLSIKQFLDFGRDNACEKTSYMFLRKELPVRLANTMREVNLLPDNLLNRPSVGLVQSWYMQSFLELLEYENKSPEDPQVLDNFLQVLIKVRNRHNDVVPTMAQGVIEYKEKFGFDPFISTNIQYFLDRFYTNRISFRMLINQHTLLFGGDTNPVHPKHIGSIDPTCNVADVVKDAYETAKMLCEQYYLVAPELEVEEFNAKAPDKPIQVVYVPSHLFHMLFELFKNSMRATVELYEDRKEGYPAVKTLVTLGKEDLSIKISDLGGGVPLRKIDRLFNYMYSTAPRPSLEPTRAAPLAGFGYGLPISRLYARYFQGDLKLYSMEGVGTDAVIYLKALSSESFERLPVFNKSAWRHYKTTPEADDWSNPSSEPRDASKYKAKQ

[37] = test system: NCI-H1650; assay: Antiproliferative activity against human NCI-H1650 cells assessed as reduction in cell viability after 72 hrs by MTT assay; assay type: functional
[38] = target: T2, [Pyruvate dehydrogenase (acetyl-transferring)] kinase isozyme 1, mitochondrial; assay: Inhibition of recombinant human His-tagged PDK1 expressed in Escherichia coli using PDH E1 as substrate measured after 30 mins by Kinase-Glo luminescence assay
[39] = target: T2, [Pyruvate dehydrogenase (acetyl-transferring)] kinase isozyme 1, mitochondrial; assay: Inhibition of PDK1 in human NCI-H1975 cells assessed as switch of pyruvate metabolism from lactate production to oxidative phosphorylation by measuring decrease in extracellular acidification rate at 1 to 10 uM measured after 4 hrs by XFe24 extracellular flux analyzer based assay; assay type: cell-based
[40] = test system: NCI-H1975; assay: Induction of apoptosis in human NCI-H1975 cells assessed as early apoptotic cells at 4 uM after 12 hrs by Annexin V-FITC/propidium iodide staining based flow cytometry (reference value: 1.8%); assay type: functional
[41] = test system: NCI-H1975; assay: Induction of apoptosis in human NCI-H1975 cells assessed as late apoptotic cells at 10 uM after 12 hrs by Annexin V-FITC/propidium iodide staining based flow cytometry (reference value: 3.7%); assay type: functional
[42] = test system: A-375; assay: Antiproliferative activity against human A375 cells assessed as reduction in cell viability after 72 hrs by MTT assay; assay type: functional
[43] = test system: NCI-H1975; assay: Induction of apoptosis in human NCI-H1975 cells assessed as live cells at 2 uM after 12 hrs by Annexin V-FITC/propidium iodide staining based flow cytometry (reference value: 92.7%); assay type: functional

IC50 [1]: 2000 nM
SMILES: CC(C)c1ccc(COc2ccc(CC(=O)NCCN)cc2Cl)cc1

EC50 [2]: 340 nM
IC50 [11]: 780 nM
Kd [12]: 870 nM
IC50 [19]: 2500 nM
IC50 [21]: 3800 nM
inhibition [26]: Active
Papp [29]: 8.51 ×10⁻⁶ cm/s
inhibition [30]: Active
inhibition [34]: Active
IC50 [36]: 5700 nM
IC50 [38]: 290 nM
inhibition [39]: Active
SMILES: Cc1cccc(NC(=O)CSc2n[nH]c(-c3ccccc3O)n2)c1C
Activity [3]: 13.1%
reduction in PDH phosphorylation (qualitative) [4]: Active
GI50 at 72 h [5]: > 20000 nM
Activity [6]: 5%
Activity [7]: 92.3%
Activity [8]: 3.1%
Activity [9]: 10.6%
TGI [10]: Dose-dependent effect
Activity [13]: Dose-dependent effect
GC50 [13]: 7900 nM
Activity [14]: 1.2%
Activity [15]: Dose-dependent effect
Activity [16]: Dose-dependent effect
GC50 [16]: 12700 nM
Activity [17]: 73.4%
Activity [18]: 0.9%
inhibition [20]: Active
Activity [22]: Dose-dependent effect
GC50 [22]: 9500 nM
Activity [23]: Dose-dependent effect
Activity [24]: Non-Toxic
Activity [25]: 4.8%
Activity [27]: 2%
Activity [28]: 2.4%
Activity [31]: Dose-dependent effect
GC50 [31]: 5200 nM
Activity [32]: 1.6%
Activity [33]: Dose-dependent effect
GC50 [33]: 2300 nM
Activity [35]: 85.5%
Activity [37]: Dose-dependent effect
GC50 [37]: 3100 nM
Activity [40]: 2.7%
Activity [41]: 11.1%
Activity [42]: Dose-dependent effect
GC50 [42]: 6400 nM
Activity [43]: 90.3%
